One compound from patent publication US11253514B2, “Triple combination of pure 5-HT6 receptor antagonists, acetylcholinesterase inhibitors and NMDA receptor antagonist” (priority 2016, dated 2022) can be followed below.

Where a name gives a salt, the structure may show the parent alone.

For this test, the target named is human recombinant 5-HT2A receptor (Homo sapiens (Human), UniProt P28223). Kind of test: Determination of Ki value at 5-HT2A receptor ([3H]-Ketanserine radioligand binding). As for the experimental part:
Determination of Ki Value at 5-HT2A Receptor
Compound was tested according to the following procedures.
Receptor source: Recombinant mammalian cells
Radioligand: [^3H]-Ketanserine (47.3 Ci/mmol)
Final ligand concentration—[1.75 nM]
Non-Specific Ligand: 0.1 mM 1-Naphthylpiperazine (1-NP)
Reference compound: 1-Naphthylpiperazine (1-NP)
Positive control: 1-Naphthylpiperazine (1-NP)
Incubation conditions: Reactions were carried out in 67 mM Tris-HCl (pH 7.4) for 1 hour at 37° C. The reaction was terminated by rapid vacuum filtration onto the glass fiber filters. Radioactivity trapped onto the filters was determined and compared to the control values in order to ascertain any interactions of the test compound(s) with the cloned serotonin 5-HT2A binding site. Reference: Methods in Molecular Biology, 2002, 190, 31-49 Results:
. The Ki values tabulated below are average of three independent experiments.

The term Ki denotes the equilibrium dissociation constant of an inhibitor or competing ligand from its target.

For `COc1ccc2c(c1)c(CN1CCN(C)CC1)cn2S(=O)(=O)c1ccc(F)cc1` [Compound 2, 1-[(4-Fluorophenyl)sulfonyl]-5-methoxy-3-[(4-methyl-1-piperazinyl)methyl]-1H-indole dihydrochloride], the Ki was above 10 µM.
